Key:
Acinetobacter baumannii [1] = test: Antibacterial activity against OXA-23 producing multidrug-resistant Acinetobacter baumannii clinical isolate 15-4 assessed as inhibition of bacterial growth incubated for 18 to 20 hrs by two fold serial dilution assay; type: functional; conditions: time 18-20 hrs
Escherichia coli [2] = test: Antibacterial activity against ESBL-producing multidrug-resistant Escherichia coli clinical isolate 14-4 assessed as inhibition of bacterial growth incubated for 18 to 20 hrs by two fold serial dilution assay; type: functional; conditions: time 18-20 hrs
Pseudomonas aeruginosa [3] = test: Antibacterial activity against IMP-4 producing multidrug-resistant Pseudomonas aeruginosa clinical isolate 15-4 assessed as inhibition of bacterial growth incubated for 18 to 20 hrs by two fold serial dilution assay; type: functional; conditions: time 18-20 hrs
Acinetobacter baumannii [4] = test: Antibacterial activity against OXA-23 producing multidrug-resistant Acinetobacter baumannii clinical isolate 15-2 assessed as inhibition of bacterial growth incubated for 18 to 20 hrs by two fold serial dilution assay; type: functional; conditions: time 18-20 hrs
Pseudomonas aeruginosa [5] = test: Antibacterial activity against IMP-4 producing multidrug-resistant Pseudomonas aeruginosa clinical isolate 15-1 assessed as inhibition of bacterial growth incubated for 18 to 20 hrs by two fold serial dilution assay; type: functional; conditions: time 18-20 hrs
Klebsiella pneumoniae [6] = test: Antibacterial activity against KPC-2 producing multidrug-resistant Klebsiella pneumoniae clinical isolate 15-3 assessed as inhibition of bacterial growth incubated for 18 to 20 hrs by two fold serial dilution assay; type: functional; conditions: time 18-20 hrs
Escherichia coli [7] = test: Antibacterial activity against ESBL-producing multidrug-resistant Escherichia coli clinical isolate 14-1 assessed as inhibition of bacterial growth incubated for 18 to 20 hrs by two fold serial dilution assay; type: functional; conditions: time 18-20 hrs
Acinetobacter baumannii [8] = test: Antibacterial activity against OXA-23 producing multidrug-resistant Acinetobacter baumannii clinical isolate 15-1 assessed as inhibition of bacterial growth incubated for 18 to 20 hrs by two fold serial dilution assay; type: functional; conditions: time 18-20 hrs
Acinetobacter baumannii [9] = test: Antibacterial activity against OXA-23 producing multidrug-resistant Acinetobacter baumannii clinical isolate 15-3 assessed as inhibition of bacterial growth incubated for 18 to 20 hrs by two fold serial dilution assay; type: functional; conditions: time 18-20 hrs
Klebsiella pneumoniae [10] = test: Antibacterial activity against KPC-2 producing multidrug-resistant Klebsiella pneumoniae clinical isolate 15-2 assessed as inhibition of bacterial growth incubated for 18 to 20 hrs by two fold serial dilution assay; type: functional; conditions: time 18-20 hrs
Pseudomonas aeruginosa [11] = test: Antibacterial activity against Pseudomonas aeruginosa ATCC 27853 assessed as inhibition of bacterial growth incubated for 18 to 20 hrs by two fold serial dilution assay; type: functional; conditions: time 18-20 hrs
Escherichia coli [12] = test: Antibacterial activity against ESBL-producing multidrug-resistant Escherichia coli clinical isolate 14-2 assessed as inhibition of bacterial growth incubated for 18 to 20 hrs by two fold serial dilution assay; type: functional; conditions: time 18-20 hrs
Acinetobacter baumannii [13] = test: Antibacterial activity against OXA-23 producing multidrug-resistant Acinetobacter baumannii clinical isolate 15-5 assessed as inhibition of bacterial growth incubated for 18 to 20 hrs by two fold serial dilution assay; type: functional; conditions: time 18-20 hrs
Klebsiella pneumoniae [14] = test: Antibacterial activity against KPC-2 producing multidrug-resistant Klebsiella pneumoniae clinical isolate 15-5 assessed as inhibition of bacterial growth incubated for 18 to 20 hrs by two fold serial dilution assay; type: functional; conditions: time 18-20 hrs
Pseudomonas aeruginosa [15] = test: Antibacterial activity against IMP-4 producing multidrug-resistant Pseudomonas aeruginosa clinical isolate 15-5 assessed as inhibition of bacterial growth incubated for 18 to 20 hrs by two fold serial dilution assay; type: functional; conditions: time 18-20 hrs
Klebsiella pneumoniae [16] = test: Antibacterial activity against KPC-2 producing multidrug-resistant Klebsiella pneumoniae clinical isolate 15-1 assessed as inhibition of bacterial growth incubated for 18 to 20 hrs by two fold serial dilution assay; type: functional; conditions: time 18-20 hrs
[17] = AUC (0 to infinity) in ICR mouse at 20 mg/kg,iv administration measured upto 6 hrs by LC-MS/MS analysis; type: ADME, organism-based; conditions: in vivo
[18] = Half life in ICR mouse at 20 mg/kg,iv administration measured upto 6 hrs by LC-MS/MS analysis; type: ADME, organism-based; conditions: in vivo
[19] = Volume of distribution at steady state in ICR mouse at 20 mg/kg,iv administration measured upto 6 hrs by LC-MS/MS analysis; type: ADME, organism-based; conditions: in vivo, read-out: Vdss
[20] = MRT in ICR mouse at 20 mg/kg,iv administration measured upto 6 hrs by LC-MS/MS analysis; type: ADME, organism-based; conditions: in vivo
[21] = Clearance in ICR mouse at 20 mg/kg,iv administration measured upto 6 hrs by LC-MS/MS analysis; type: ADME, organism-based; conditions: in vivo
Acinetobacter baumannii [22] = test: Antibacterial activity against OXA-23 producing multidrug-resistant Acinetobacter baumannii clinical isolate 17-3 assessed as inhibition of bacterial growth incubated for 18 to 20 hrs by two fold serial dilution assay; type: functional; conditions: time 18-20 hrs
Pseudomonas aeruginosa [23] = test: Antibacterial activity against IMP-4 producing multidrug-resistant Pseudomonas aeruginosa clinical isolate 17-13 assessed as inhibition of bacterial growth incubated for 18 to 20 hrs by two fold serial dilution assay; type: functional; conditions: time 18-20 hrs
Acinetobacter baumannii [24] = test: Antibacterial activity against OXA-23 producing multidrug-resistant Acinetobacter baumannii clinical isolate 17-2 assessed as inhibition of bacterial growth incubated for 18 to 20 hrs by two fold serial dilution assay; type: functional; conditions: time 18-20 hrs
Escherichia coli [25] = test: Antibacterial activity against Escherichia coli ATCC35218 assessed as inhibition of bacterial growth incubated for 18 to 20 hrs by two fold serial dilution assay; type: functional; conditions: time 18-20 hrs
Pseudomonas aeruginosa [26] = test: Antibacterial activity against IMP-4 producing multidrug-resistant Pseudomonas aeruginosa clinical isolate 19-17 assessed as inhibition of bacterial growth incubated for 18 to 20 hrs by two fold serial dilution assay; type: functional; conditions: time 18-20 hrs
Pseudomonas aeruginosa [27] = test: Antibacterial activity against IMP-4 producing multidrug-resistant Pseudomonas aeruginosa clinical isolate 19-5 assessed as inhibition of bacterial growth incubated for 18 to 20 hrs by two fold serial dilution assay; type: functional; conditions: time 18-20 hrs
Pseudomonas aeruginosa [28] = test: Antibacterial activity against IMP-4 producing multidrug-resistant Pseudomonas aeruginosa clinical isolate 19-1 assessed as inhibition of bacterial growth incubated for 18 to 20 hrs by two fold serial dilution assay; type: functional; conditions: time 18-20 hrs

SMILES	MIC (Acinetobacter baumannii [1]) [mg/L]	MIC (Escherichia coli [2]) [mg/L]	MIC (Pseudomonas aeruginosa [3]) [mg/L]	MIC (Acinetobacter baumannii [4]) [mg/L]	MIC (Pseudomonas aeruginosa [5]) [mg/L]	MIC (Klebsiella pneumoniae [6]) [mg/L]	MIC (Escherichia coli [7]) [mg/L]	MIC (Acinetobacter baumannii [8]) [mg/L]	MIC (Acinetobacter baumannii [9]) [mg/L]	MIC (Klebsiella pneumoniae [10]) [mg/L]	MIC (Pseudomonas aeruginosa [11]) [mg/L]	MIC (Escherichia coli [12]) [mg/L]	MIC (Acinetobacter baumannii [13]) [mg/L]	MIC (Klebsiella pneumoniae [14]) [mg/L]	MIC (Pseudomonas aeruginosa [15]) [mg/L]	MIC (Klebsiella pneumoniae [16]) [mg/L]	further results
CC(C)(O/N=C(\C(=O)N[C@@H]1C(=O)N2C(C(=O)O)=C(CSCCCNC(=O)c3ccc(O)c(O)c3Cl)CS[C@H]12)c1csc(N)n1)C(=O)O.O=C(O)C(F)(F)F	64	16	2	64	1	8	0.125	32	32	4	4	2	64	4	4	16	
CC(C)C(O/N=C(\C(=O)N[C@@H]1C(=O)N2C(C(=O)O)=C(CS[C@H]3CC[C@@H](NC(=O)c4ccc(O)c(O)c4Cl)CC3)CS[C@H]12)c1csc(N)n1)C(=O)O.O=C(O)C(F)(F)F (stereo not given in full)	16	16	2	16	8	4	0.125	32	32	2	2	2	16	2	8	2	
Cl.Nc1nc(/C(=N/OC(C(=O)O)C2CCC(F)(F)CC2)C(=O)N[C@@H]2C(=O)N3C(C(=O)O)=C(CSCCNC(=O)c4ccc(O)c(O)c4Cl)CS[C@H]23)cs1 (stereo not given in full)																	AUC(0-inf) [17]: 6.34 µg·h/mL; half-life [18]: 46.8 min; Vd [19]: 0.997 L/kg; MRT [20]: 18.6 min; clearance [21]: 3.24 L/h/kg
Nc1nc(/C(=N/OC(C(=O)O)C2CCCCC2)C(=O)N[C@@H]2C(=O)N3C(C(=O)O)=C(CSCCNC(=O)c4ccc(O)c(O)c4Cl)CS[C@H]23)c(Cl)s1.O=C(O)C(F)(F)F (stereo not given in full)	2	0.5		2		2	0.25	4	4	1		0.5	4	1		1	MIC (Acinetobacter baumannii [22]): 2 mg/L; MIC (Pseudomonas aeruginosa [23]): 0.25 mg/L; MIC (Acinetobacter baumannii [24]): 1 mg/L; MIC (Escherichia coli [25]): 0.125 mg/L; MIC (Pseudomonas aeruginosa [26]): 0.5 mg/L; MIC (Pseudomonas aeruginosa [27]): 1 mg/L
CC(C)(O/N=C(\C(=O)N[C@@H]1C(=O)N2C(C(=O)[O-])=C(C[N+]3(CCNC(=O)c4ccc(O)c(O)c4Cl)CCCC3)CS[C@H]12)c1csc(N)n1)C(=O)O.O=C(O)C(F)(F)F																	AUC(0-inf) [17]: 11.6 µg·h/mL; half-life [18]: 33 min; Vd [19]: 0.663 L/kg; MRT [20]: 26.4 min; clearance [21]: 1.51 L/h/kg
CC(C)(O/N=C(\C(=O)N[C@@H]1C(=O)N2C(C(=O)O)=C(CS[C@H]3CC[C@@H](NC(=O)c4ccc(O)c(O)c4Cl)CC3)CS[C@H]12)c1csc(N)n1)C(=O)O.O=C(O)C(F)(F)F	32	1	1	32	1	4	0.125	32	32	4	8	4	32	8	2	4	
Nc1nc(/C(=N/OC(C(=O)O)C2CCC(F)(F)CC2)C(=O)N[C@@H]2C(=O)N3C(C(=O)O)=C(CSCCNC(=O)c4ccc(O)c(O)c4Cl)CS[C@H]23)ns1.O=C(O)C(F)(F)F (stereo not given in full)		1				16	1			32		4		16		16	MIC (Pseudomonas aeruginosa [28]): 8 mg/L; MIC (Acinetobacter baumannii [22]): 0.25 mg/L; MIC (Pseudomonas aeruginosa [23]): 0.5 mg/L; MIC (Acinetobacter baumannii [24]): 0.25 mg/L; MIC (Escherichia coli [25]): 0.25 mg/L; MIC (Pseudomonas aeruginosa [26]): 1 mg/L; MIC (Pseudomonas aeruginosa [27]): 4 mg/L

Reference: ChEMBL document CHEMBL5543142, “Discovery of YFJ-36: Design, Synthesis, and Antibacterial Activities of Catechol-Conjugated β-Lactams against Gram-Negative Bacteria” (J Med Chem, 2024)
